{
  "source": "patent US20070032460A1",
  "about": "“Use of voacamine and related compounds in the treatment of malaria” (priority 2005, published 2007)",
  "origin": "cited, not measured here",
  "system": "multi-drug resistant tumor cells",
  "details": "cited from earlier work",
  "data": [
    {"molecule": "CC=C1CN(C)C2Cc3c([nH]c4ccccc34)C(c3cc4[nH]c5c(c4cc3OC)CCN3CC4CC(CC)C3C5(C(=O)OC)C4)CC1C2C(=O)OC", "note": "(stereo not shown) [VOA, Voacamine]", "values": [
      {"measurement": "effect on vinblastine-mediated cytotoxicity", "value": "enhance vinblastine-mediated cytotbxicity"}
    ]}
  ]
}
